Measured values from ChEMBL document CHEMBL4825742, “Novel Histone Deacetylase 6 Inhibitors for Treating Alzheimer's Disease and Cancer” (ACS Med Chem Lett, 2021).

Molecular target: T1, Protein deacetylase HDAC6 (Homo sapiens, UniProt Q9UBN7)
T1 sequence (Q9UBN7 whole entry): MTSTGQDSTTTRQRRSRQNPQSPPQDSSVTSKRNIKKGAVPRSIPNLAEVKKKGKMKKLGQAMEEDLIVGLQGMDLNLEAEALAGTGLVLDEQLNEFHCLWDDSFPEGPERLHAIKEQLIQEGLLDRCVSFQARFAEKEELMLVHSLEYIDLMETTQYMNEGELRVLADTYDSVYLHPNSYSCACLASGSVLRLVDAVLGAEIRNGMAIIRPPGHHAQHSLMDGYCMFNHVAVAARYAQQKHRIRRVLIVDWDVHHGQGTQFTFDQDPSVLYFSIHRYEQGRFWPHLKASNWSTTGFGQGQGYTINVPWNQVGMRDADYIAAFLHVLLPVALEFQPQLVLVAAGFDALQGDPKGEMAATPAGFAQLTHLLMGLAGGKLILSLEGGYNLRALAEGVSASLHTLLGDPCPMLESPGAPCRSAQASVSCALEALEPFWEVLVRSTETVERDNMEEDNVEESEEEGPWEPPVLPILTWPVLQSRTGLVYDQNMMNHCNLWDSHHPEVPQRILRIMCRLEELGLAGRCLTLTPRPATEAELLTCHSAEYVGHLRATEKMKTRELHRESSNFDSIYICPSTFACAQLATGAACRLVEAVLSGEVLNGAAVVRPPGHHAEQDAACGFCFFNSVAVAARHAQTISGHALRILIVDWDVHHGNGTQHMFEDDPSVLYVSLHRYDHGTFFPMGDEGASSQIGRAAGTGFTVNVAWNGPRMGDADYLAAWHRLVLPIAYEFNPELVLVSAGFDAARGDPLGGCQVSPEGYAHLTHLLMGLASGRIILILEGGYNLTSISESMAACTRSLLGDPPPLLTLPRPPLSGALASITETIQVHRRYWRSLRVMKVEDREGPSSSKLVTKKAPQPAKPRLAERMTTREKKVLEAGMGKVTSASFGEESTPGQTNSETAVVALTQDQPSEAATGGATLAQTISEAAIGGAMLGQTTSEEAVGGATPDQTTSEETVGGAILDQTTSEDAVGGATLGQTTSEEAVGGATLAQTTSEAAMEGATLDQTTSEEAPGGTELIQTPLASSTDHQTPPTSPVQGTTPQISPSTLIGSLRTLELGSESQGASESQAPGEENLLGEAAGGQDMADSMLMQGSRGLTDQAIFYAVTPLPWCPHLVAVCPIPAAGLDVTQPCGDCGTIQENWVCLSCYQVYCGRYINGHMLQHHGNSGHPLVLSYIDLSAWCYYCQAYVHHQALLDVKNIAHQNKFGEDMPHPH
Assay: Inhibition of human full length HDAC6 expressed in baculovirus expression system using FAM-RHKK(Ac)-NH2 as substrate incubated for 5 hrs by […] endpoint assay

Compound | IC50
O=C(NO)c1cc(F)c2c(c1)CCn1cccc1-2 | 1 nM
O=C(NO)c1cc(F)c2c(c1)CCN(C1CCC1)C2 | 1 nM
Cn1c2c(c3ccccc31)CCN(Cc1ccc(C(=O)NO)cc1F)C2 | 1 nM

The remaining lines, values ahead:

IC50 | Compound
1 nM | CN1CC2(CCCCC2)CC[C@H]1Cc1cc(F)cc(C(=O)NO)c1
1 nM | CN1Cc2cc(C(=O)NO)ccc2CN1Cc1ccccc1
1 nM | O=C(NO)c1ccc(CN2CC3(CCOC3)C2)c(F)c1
